Assay [1] deals with Cdc2 (Cdk1) tyrosine-15 phosphorylation. Kind of assay: Inhibitory effect on Cdc2 (Cdk1) tyrosine-15 phosphorylation in NCI-H1299 cells (Pharmacological Test 2). The assay is classed as cell-based. The conditions noted are these: Homo sapiens, camptothecin 200 nM 16 hours, then test compound with nocodazole 8 hours, ELISA, read-out: Cdc2-Y15 Phosphorylation-Inhibitory Effect (H1299, +camptothecin) (EC50). From the text: Pharmacological Test 2 (Method for Determining Drug Effect Using Cells (Inhibitory Effect on Cdc2 (Cdk1) Tyrosine-15 Phosphorylation))
Fetal bovine serum (FBS) was purchased from Morgate, Inc.; an RPMI-1640 medium and a DMEM medium were purchased from Invitrogen, Inc.; camptothecin was purchased from Sigma Co.; gemcitabine was purchased from Eli Lilly Japan K.K.; nocodazole and protease inhibitor cocktail were purchased from Sigma Co.; a rabbit anti-Cdc2 antibody and a mouse anti-Cdc2 antibody were purchased from Santa Cruz Biotechnology, Inc.; a rabbit anti-tyrosine-15-phosphorylated Cdc2 antibody and a horseradish peroxidase-labeled anti-mouse IgG antibody were purchased from Cell Signaling Technology, Inc.; and Sure Blue Reserve TMB peroxidase substrate was purchased from Kirkegaard & Perry Laboratories, Inc.
A human non-small cell lung cancer cell line (NCI-H1299) and a human colon cancer cell line (WiDr) can be obtained from American Type Culture Collection (ATCC).
In the method using NCI-H1299 cells, the cells were suspended in an RPMI-1640 medium supplemented with 10% FBS, and 100 μL of the resulting cell suspension was dispensed in a Nunclon Delta treated 96-well plastic plate purchased from Nunc, Inc. at a density of 2000 cells per well, and the plate was incubated overnight at 37° C. under an atmosphere of 5% CO2 and 95% air. Camptothecin was dissolved in dimethyl sulfoxide (DMSO) and further the resulting solution was diluted with an RPMI-1640 medium supplemented with 10% FBS. Then, 50 μL of the diluted solution was added to each well of the plate in which the cells were seeded in advance such that the final concentration of camptothecin was 200 nM, and the plate was incubated at 37° C. under an atmosphere of 5% CO2 and 95% air for 16 hours. A test compound was serially diluted with DMSO, and further diluted with an RPMI-1640 medium supplemented with 10% FBS containing 4000 nM nocodazole. Then, 50 μL of the test compound solution was added to each well of the plate in which the cells treated with camptothecin were seeded, and the plate was incubated at 37° C. under an atmosphere of 5% CO2 and 95% air for 8 hours. Then, the culture medium was removed from each well and 100 μL of a cell lysis buffer was added to each well, and the plate was shaken at 4° C. for 2 hours, and thereafter the liquid in the plate was frozen at −80° C. and then thawed, which was used as a lysed cell solution. Cdc2 and tyrosine-15-phosphorylated Cdc2 in this lysed cell solution were measured by an enzyme-linked immunosorbent assay (ELISA method), and a ratio of tyrosine-15-phosphorylated Cdc2 to Cdc2 was calculated to determine a 50% effective concentration (EC50, nM) of the test compound for inhibition of phosphorylation in cells. The cell lysis buffer as used herein is an aqueous solution containing 20 mM HEPES (pH 7.5), 150 mM sodium chloride, 1 mM disodium ethylenediamine tetraacetate, 0.1% polyoxyethylene (10) octylphenyl ether, 1% protease inhibitor cocktail, 1 mM dithiothreitol, 2 mM sodium orthovanadate, 10 mM sodium fluoride and 10 mM glycerol diphosphate. The measurement of Cdc2 by the ELISA method was carried out as follows. 50 μL of a solution of a rabbit anti-Cdc2 antibody obtained by diluting the antibody to 200 times with 50 mM carbonate-bicarbonate buffer (pH 9.6) was dispensed into each well of a 96-well Maxisorb immunoplate purchased from Nunc, Inc., and the immunoplate was let stand overnight at 4° C. to immobilize the antibody thereto. Subsequently, each well was washed three times with phosphate buffered saline (PBS), and 300 μL of PBS containing 5% bovine serum albumin (5% BSA/PBS) was added to each well, and then, the immunoplate was let stand at room temperature for 2 hours. […]
A general note: ELISA stands for enzyme-linked immunosorbent assay.

Another assay deals with T1, Wee1 kinase (Homo sapiens, UniProt P30291).
T1 construct: made in house; host or cells: Sf9 insect cells (recombinant baculovirus)
Kind of assay: Wee1 kinase inhibitory effect (Pharmacological Test 1). The assay is classed as biochemical. The conditions noted are these: GST-tagged Wee1 kinase, Poly(Lys, Tyr) substrate, 10 μM ATP, 30° C. for 30 minutes. From the text: Pharmacological Test 1 (Wee1 Kinase Inhibitory Effect)
(1) Purification of Wee1 Kinase
A cDNA of Wee1 kinase with […] (GST) fused at the amino terminal thereof was inserted into a baculovirus expression vector to construct a recombinant baculovirus, with which cells of an insect cell line Sf9 were infected to overexpress the target protein. The infected cells were collected and lysed, and then the GST-tagged Wee1 kinase protein was adsorbed to a glutathione column and eluted from the column with glutathione, and the active fraction was desalted in a desalting column to give a purified enzyme.
(2) Measurement of Wee1 Kinase Activity
In measurement of the Wee1 kinase activity, a synthetic peptide, Poly(Lys, Tyr) hydrobromide (Lys:Tyr (4:1)) purchased from Sigma was used as the substrate.
The amount of the reaction mixture was 21.1 μL; and the composition of the reaction buffer was 50 mM Tris-HCl buffer (pH 7.4)/10 mM magnesium chloride/1 mM dithiothreitol. The purified Wee1 kinase, 2.5 μg of the substrate peptide, 10 μM of non-labeled adenosine triphosphate (ATP) and 1 μCi of [γ-^33P]-labeled ATP (2500 Ci/mmol or more) were added to the reaction buffer, and the resulting mixture was incubated at 30° C. for 30 minutes. Thereafter, 10 μL of 350 mM phosphate buffer was added to the reaction system to stop the reaction. The substrate peptide was adsorbed on a P81 paper filter 96-well plate and the plate was washed several times with 130 mM phosphate buffer, and the radioactivity thereof was counted using a liquid scintillation counter. The [γ-^33P]-labeled ATP was purchased from Amersham Bioscience, Ltd.
The addition of a test compound to the reaction system was carried out by preparing a series of dilutions of the compound with dimethyl sulfoxide (DMSO) and adding 1.1 μL of each dilution to the reaction system. As a control, 1.1 μL of DMSO was added to the reaction system.

Structures can show the parent of a compound that is named as a salt.

Usually EC50 stands for the concentration at which the effect is half-maximal. As usually defined, the IC50 is the concentration that inhibits the measured activity by half. A lower IC50 goes with greater potency in that assay.

T1 sequence (P30291 whole entry): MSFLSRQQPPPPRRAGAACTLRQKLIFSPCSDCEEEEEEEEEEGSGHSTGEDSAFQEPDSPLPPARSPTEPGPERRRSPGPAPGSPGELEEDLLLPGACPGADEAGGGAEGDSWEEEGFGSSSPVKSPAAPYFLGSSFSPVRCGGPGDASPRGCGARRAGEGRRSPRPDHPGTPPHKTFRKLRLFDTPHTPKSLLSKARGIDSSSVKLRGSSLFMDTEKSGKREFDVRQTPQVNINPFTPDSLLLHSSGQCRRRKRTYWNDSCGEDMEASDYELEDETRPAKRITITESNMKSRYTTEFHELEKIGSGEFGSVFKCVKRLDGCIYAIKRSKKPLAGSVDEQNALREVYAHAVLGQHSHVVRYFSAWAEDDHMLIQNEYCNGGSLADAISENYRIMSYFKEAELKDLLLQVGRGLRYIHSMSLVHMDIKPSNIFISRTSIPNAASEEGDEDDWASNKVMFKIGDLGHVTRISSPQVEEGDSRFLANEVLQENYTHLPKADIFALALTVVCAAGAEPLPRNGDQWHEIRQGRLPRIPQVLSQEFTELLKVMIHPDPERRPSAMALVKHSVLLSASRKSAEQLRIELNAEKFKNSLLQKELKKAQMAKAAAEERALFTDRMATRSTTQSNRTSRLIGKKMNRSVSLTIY

For `Cc1cc(Nc2ncc3c(=O)n4c(nc3n2)c2ccccc2n4-c2ccccn2)ccc1N1CCN(C)CC1` [Example 21, 2-{[3-methyl-4-(4-methylpiperazin-1-yl)phenyl]amino}-7-(pyridin-2-yl)pyrimido[4′,5′:4,5]pyrimido[1,2-b]indazol-5(7H)-one], the EC50 in assay [1] came out at 111 nM. The compound further came in with an IC50 on Wee1 kinase of 32 nM.
In turn, `CN1CCN(c2ccc(Nc3ncc4c(=O)n5c(nc4n3)c3ccccc3n5-c3ccccn3)cc2)CC1` [Example 23, 2-{[4-(4-methylpiperazin-1-yl)phenyl]amino}-7-(pyridin-2-yl)pyrimido[4′,5′:4,5]pyrimido[1,2-b]indazol-5(7H)-one] yielded an IC50 at Wee1 kinase of 30 nM.
Turning to `CN1CCc2cc(Nc3ncc4c(=O)n5c(nc4n3)c3ccccc3n5-c3ccccn3)ccc2C1` [Example 43, 2-[(2-methyl-1,2,3,4-tetrahydroisoquinolin-6-yl)amino]-7-(pyridin-2-yl)pyrimido[4′,5′:4,5]pyrimido[1,2-b]indazol-5(7H)-one], the concentration for a half-maximal effect (EC50) in assay [1] is 31 nM. The compound also gave a half-inhibitory concentration (IC50) against Wee1 kinase of 4.9 nM.
The matching figures for `CN1CCc2ccc(Nc3ncc4c(=O)n5c(nc4n3)c3ccccc3n5-c3ccccn3)cc2C1` [Example 44, 2-[(2-methyl-1,2,3,4-tetrahydroisoquinolin-7-yl)amino]-7-(pyridin-2-yl)pyrimido[4′,5′:4,5]pyrimido[1,2-b]indazol-5(7H)-one]: 38 nM and 3.9 nM.
For `Cc1cc(Nc2ncc3c(=O)n4c(nc3n2)c2ccccc2n4-c2ccsc2)ccc1N1CCN(C)CC1` [Example 55, 2-{[3-methyl-4-(4-methylpiperazin-1-yl)phenyl]amino}-7-(3-thienyl)pyrimido[4′,5′:4,5]pyrimido[1,2-b]indazol-5(7H)-one], half-maximal inhibition at Wee1 kinase (IC50) was put at 13 nM.
With `Cc1cc(Nc2ncc3c(=O)n4c(nc3n2)c2ccccc2n4-c2ncccn2)ccc1N1CCN(C)CC1` [Example 61, 2-{[3-methyl-4-(4-methylpiperazin-1-yl)phenyl]amino}-7-(pyrimidin-2-yl)pyrimido[4′,5′:4,5]pyrimido[1,2-b]indazol-5(7H)-one], the EC50 in assay [1] was 130 nM. Further, the IC50 on Wee1 kinase was 12 nM.
In turn, `CN1CCN(c2ccc(Nc3ncc4c(=O)n5c(nc4n3)c3ccccc3n5-c3ncccn3)cc2)CC1` [Example 62, 2-{[4-(4-methylpiperazin-1-yl)phenyl]amino}-7-(pyrimidin-2-yl)pyrimido[4′,5′:4,5]pyrimido[1,2-b]indazol-5(7H)-one] gave an IC50 against Wee1 kinase of 38 nM.
Regarding `CN(C)[C@H]1CCN(c2ccc(Nc3ncc4c(=O)n5c(nc4n3)c3ccccc3n5-c3ncccn3)cc2)C1` [Example 79, 2-({4-[(3S)-3-(dimethylamino)pyrolidin-1-yl]phenyl}amino)-7-(pyrimidin-2-yl)pyrimido[4′,5′:4,5]pyrimido[1,2-b]indazol-5(7H)-one], in assay [1], the EC50 is 370 nM. Besides, half-maximal inhibition at Wee1 kinase (IC50) required 24 nM.
For the compound `CN1CCC(C)(c2ccc(Nc3ncc4c(=O)n5c(nc4n3)c3ccccc3n5-c3ncccn3)cc2)CC1` [Example 88, 2-{[4-(1,4-dimethylpiperidin-4-yl)phenyl]amino}-7-(pyrimidin-2-yl)pyrimido[4′,5′:4,5]pyrimido[1,2-b]indazol-5(7H)-one], it took 26 nM to reach half-maximal inhibition against Wee1 kinase (IC50).
For the compound `Cc1cc(Nc2ncc3c(=O)n4c(nc3n2)c2ccccc2n4-c2ncccn2)ccc1OCCN(C)C` [Example 90, 2-({4-[2-(dimethylamino)ethoxy]-3-methylphenyl}amino)-7-(pyrimidin-2-yl)pyrimido[4′,5′:4,5]pyrimido[1,2-b]indazol-5(7H)-one], the EC50 in assay [1] amounted to 250 nM. Also, half-maximal inhibition on Wee1 kinase (IC50) required 30 nM.
`CN(C)Cc1ccc(Nc2ncc3c(=O)n4c(nc3n2)c2ccccc2n4-c2ncccn2)cc1` [Example 91, 2-({-4-[(dimethylamino)methyl]phenyl}amino)-7-(pyrimidin-2-yl)pyrimido[4′,5′:4,5]pyrimido[1,2-b]indazol-5(7H)-one] yielded an IC50 on Wee1 kinase of 34 nM.
Take `CN(C)CCc1ccc(Nc2ncc3c(=O)n4c(nc3n2)c2ccccc2n4-c2ncccn2)cc1` [Example 92, 2-({4-[2-(dimethylamino)ethyl]phenyl}amino)-7-(pyrimidin-2-yl)pyrimido[4′,5′:4,5]pyrimido[1,2-b]indazol-5(7H)-one]: at Wee1 kinase, the IC50 stood at 46 nM.
On to `CN1CCc2cc(Nc3ncc4c(=O)n5c(nc4n3)c3ccccc3n5-c3ncccn3)ccc2C1` [Example 100, 2-[(2-methyl-1,2,3,4-tetrahydroisoquinolin-6-yl)amino]-7-(pyrimidin-2-yl)pyrimido[4′,5′:4,5]pyrimido[1,2-b]indazol-5(7H)-one], for which the half-maximal effective concentration (EC50) in assay [1] stood at 52 nM. In addition, the IC50 against Wee1 kinase came out at 5.1 nM.
With `CN1CCc2ccc(Nc3ncc4c(=O)n5c(nc4n3)c3ccccc3n5-c3ncccn3)cc2C1` [Example 101, 2-[(2-methyl-1,2,3,4-tetrahydroisoquinolin-7-yl)amino]-7-(pyrimidin-2-yl)pyrimido[4′,5′:4,5]pyrimido[1,2-b]indazol-5(7H)-one], in assay [1], the EC50 stood at 43 nM. The same compound yielded a half-inhibitory concentration (IC50) against Wee1 kinase of 3.8 nM.
At Wee1 kinase, `CN1Cc2ccc(Nc3ncc4c(=O)n5c(nc4n3)c3ccccc3n5-c3ncccn3)cc2C1` [Example 102, 2-[(2-methyl-2,3-dihydro-1H-isoindol-5-yl)amino]-7-(pyrimidin-2-yl)pyrimido[4′,5′:4,5]pyrimido[1,2-b]indazol-5(7H)-one] showed an IC50 of 19 nM.
As for `CN(C)CCCOc1ccc(Nc2ncc3c(=O)n4c(nc3n2)c2ccccc2n4-c2nccs2)cc1` [Example 121, 2-({4-[3-(dimethylamino)propoxy]phenyl}amino)-7-(1,3-thiazol-2-yl)pyrimido[4′,5′:4,5]pyrimido[1,2-b]indazol-5(7H)-one], the IC50 at Wee1 kinase was determined as 23 nM.
Same read-out and setting: for `CN1CCN(c2ccc(Nc3ncc4c(=O)n5c(nc4n3)c3ccccc3n5-c3cscn3)cc2)CC1` [Example 146, 2-{[4-(4-methylpiperazin-1-yl)phenyl]amino}-7-(1,3-thiazol-4-yl)pyrimido[4′,5′:4,5]pyrimido[1,2-b]indazol-5(7H)-one] the value was 13 nM.
`CN1CCN(c2ccc(Nc3ncc4c(=O)n5c(nc4n3)c3ccc(O)cc3n5-c3ccccn3)cc2)CC1` [Example 150, 9-hydroxy-2-{[4-(4-methylpiperazin-1-yl)phenyl]amino}-7-(pyridin-2-yl)pyrimido[4′,5′:4,5]pyrimido[1,2-b]indazol-5(7H)-one trifluoroacetate] registered a half-maximal inhibitory concentration (IC50) against Wee1 kinase of 8.6 nM.

(Values after patent US8288396B2, “Pyrimidopyrimidoindazole derivative” (MSDKK, priority 2009, dated 2012).)
